From article PMC3740683, “ML212: A small-molecule probe for investigating fluconazole resistance mechanisms in Candida albicans” (Beilstein Journal of Organic Chemistry, 2013)

Columns and labels:
[1] = system: C. albicans CaCi-2; test: Primary screen and dose-response retest: CaCi-2 with 8 µg/mL fluconazole (Alamar Blue growth); type: cell-based, Candida albicans; details: Candida albicans, CACI2; 37 °C, 48 hours, with test compound and 8 µg/mL (26 µM) fluconazole; average of at least three independent experiments in duplicate; inactive = negligible activity at concentrations below 26 µM
Procedure: All of the compounds prepared above were evaluated for their ability to chemosensitize the C. albicans test strains CaCi-2 and CaCi-8 towards fluconazole. […] The DMSO/fluconazole combination served as an internal control.
Protocols for cellular assays
Primary screen and dose-response retest: CaCi-2 with 8 µg/mL fluconazole […]
Clear, flat-bottom, black, 384-well plates (Corning Catalog no. 3712BC; Lot no. […]
DMSO; Fluconazole (Sequoia Research Products Ltd) 2 mg/mL stock solution in PBS; […]
(AG Scientific Catalog no. DAL 1100; Lot no.151016SA); PBS without calcium and magnesium (Cellgro Catalog no. 21-040-CV)
Synthetic defined growth medium
RPMI 1640 medium, (powder without sodium bicarbonate; Invitrogen Catalog no. […]
no. 028KO760); Glucose 40% (w/v) in water (Sigma Catalog no. G-5400); MOPS buffer […]
1) Prepare 1× RPMI medium by dissolving 10.4 grams powdered medium in 800 […]
2) Add 34.52 g MOPS. While stirring, adjust pH to 7.0 with 10 N NaOH.
3) Add 10 mL uridine solution, 50 mL glucose solution, adjust final volume to 1000 […]
Test Strain: C. albicans CaCi-2
1) Inoculate 500 µL of strain from cryopreserved stock into a 250 mL shaker flask containing 30 mL growth medium. Shake at 30 °C overnight.
2) Read OD 600 of 1 mL fungal culture in a cuvette using a standard optical density reader (Eppendorf BioPhotometer Plus), with growth medium as a background […]
3) Dilute to desired volume of fungal inoculums according to the following formula:
(1/OD measured) × (desired final volume of inoculum) × 0.3 = volume of fungal culture (µL) to add to desired volume of growth medium. When added to media in wells, this yields a calculated starting OD of the fungal inoculum of 0.00015.
1) Add fluconazole stock solution to fungal inoculum to achieve a final concentration […]
2) Add Pen/Strep at 0.1 mL per 10 mL media (1% v/v).
3) Use a Thermo Combi nL to dispense 20 µL/well of assay media into all wells.
4) Pin 25 nL test compound from compound plates into assay plates using CyBi- […]
5) Dispense 20 µL/well of culture into the assay media in all wells.
6) Incubate plates in a humidified (90% humidity) Liconic incubator at 37 °C without […]
7) Dilute Alamar Blue Reagent 1:40 in Ca/Mg-free PBS.
8) To all plates, add 5 µL/well of the diluted Alamar to a final dilution factor of 1:200.
9) Incubate the plates for an additional 2 hours.
10) Read the relative fluorescence intensity (RFU) of wells on a standard plate reader as a measure of relative fungal growth. EnVision (Perkin Elmer) plate reader setup: Ex 544 nm, Em 590 nm, bandwidth 12 nm, top read. […]

[2] = system: Hsp90-dependent signaling pathway; test: Yeast-reporter assay, Hsp90-dependent signaling pathway; type: cell-based; details: Saccharomyces cerevisiae
[3] = Plasma stability, murine plasma; type: in vitro ADME; details: 5 h incubation
[4] = Secondary assay 3: fibroblast toxicity; type: cell-based; details: mouse, NIH-3T3 fibroblasts, murine 3T3 fibroblasts
Procedure: 11) Read relative fluorescence intensity (RFU) of wells on a standard plate reader as […]
measure of relative fungal growth. EnVision (Perkin Elmer) plate reader settings: […]
Secondary assay 3: fibroblast toxicity
Clear, flat-bottom, black, 384-well plates (Corning Catalog no. 3712BC Lot no.
35808016); geldanamycin (AG Scientific Catalog no. G-1047) 15 mM stock solution in […]
DMSO; fluconazole (Sequoia Research Ltd.) 2 mg/mL stock solution in PBS; Alamar […]
Blue (AG Scientific Catalog no. DAL1100, Lot no. 151016SA); PBS w/o calcium and […]
magnesium (Cellgro Catalog no. 21-040-CV)
Optimem medium (Invitrogen Catalog no. 31985-070; Lot no. 548536); 2.5% (v/v) fetal […]
bovine serum (Hyclone Catalog no.30071.03; Lot no. ARF26748); 1% (v/v) Pen/Strep […]
Test strain: NIH-3T3 mammalian fibroblasts (ATCC CRL No. 1658) […]
1) Plate cells in 384-well plates at 6,000 cells/well in 20 µL assay medium.
2) Incubate plates overnight at 37 °C under 5% CO2.
1) After overnight culture, pin compounds into wells at 100 nL/well using the CyBio […]
CyBi-Well pinning instrument.
2) After pinning compounds, add 20 µL of assay medium supplemented with […]
fluconazole to each well. […]
6) Read the relative fluorescence intensity (RFU) of wells on a standard plate reader as a measure of relative cell growth. EnVision (Perkin Elmer) plate reader […]
setup: Ex 544 nm, Em […], bandwidth12 nm, top read.

[5] = Plasma stability, human plasma; type: in vitro ADME; details: 5 h incubation

With `COC(=O)Cn1nc(-c2cccc(OC)c2)c2ccccc21` [Compound 36] the IC50 [1] was 0.7 ± 0.3 µM, the IC50 [2] was > 26 µM and the “remaining after incubation in plasma” value [3] was < 10%. The IC50 at 48 h [4] was > 26 µM and the “remaining after incubation in plasma” value [5] was < 10%.
